Literature values in US20050159377A1, “Methods of modulating activity of prokaryotic ribosomes” (SmithKline Beecham Corporation, priority 2000, published 2005).

Test system: 50S ribosomal subunit

In the case of O=C(N[C@H](CO)[C@H](O)c1ccc([N+](=O)[O-])cc1)C(Cl)Cl [chloramphenicol], the “competition with pleuromutilin for binding” value is listed as “weakly compete”.
